Results taken from patent US3933834A, “Unsymmetrical esters of N-substituted 1,4-dihydropyridine 3,5-dicarboxylic acid” (Bayer Aktiengesellschaft, priority 1972, dated 1976).

What was measured:
coronary vessels = experiment: coronary vessel dilation: rise in oxygen saturation in the coronary sinus in the narcotized, heart-catheterized dog; assay type: in vivo; conditions: intravenous
Source text: They can accordingly be used where either or both of these effects are desired. Thus upon parenteral, oral or sublingual administration, the compounds produce a distinct and long lasting dilation of the coronary vessels which is intensified by a simultaneous nitrite-like effect of reducing the load on the heart. […] The effect on heart metabolism is thus one of energy saving. In addition, the compounds lower the blood pressure of normotonic and hypertonic animals and can thus be used as antihypertensive agents. These properties can be conveniently observed in well known laboratory models. Thus, for example, the coronary vessel dilation effect of the compounds of the invention was compared with the action of Persantin by measuring the rise in oxygen saturation in the coronary sinus in the narcotized, heart-catheterized dog, with the results reported in Table I, below.
^1 Dose given in mg/kg. body weight, administered intravenously;
^2 O2 rise given as % rise in oxygen saturation;
^3 Reversion time given is time in hours for reversion to the initial

[1] = toxicity (LD50) measured on mice by peroral administration; conditions: mouse, in vivo, po
hypertensive rats = experiment: hypotensive activity: blood pressure of hypertensive rats after peroral administration; assay type: in vivo; conditions: Rattus norvegicus, po, read-out: Peroral Dose: lowest dose which results in at least a 15 mm Hg reduction in blood pressure
Source text: The hypotensive activity of the present compounds can be observed by measuring the blood pressure of hypertensive rats following administration of the compounds.

OCCN(CCO)c1nc(N2CCCCC2)c2nc(N(CCO)CCO)nc(N3CCCCC3)c2n1 [Persantin, reference compound]
O2 % Rise (rise in oxygen saturation in the coronary sinus) (coronary vessels; 0.3 mg/kg): 23%
Reversion time (to the initial value) (coronary vessels; 0.3 mg/kg): 1 to 2 h
O2 % Rise (rise in oxygen saturation in the coronary sinus) (coronary vessels; 0.4 mg/kg): 34%
Reversion time (to the initial value) (coronary vessels; 0.4 mg/kg): 1 to 2 h

CCOC(=O)C1=C(C)N(C)C(C)=C(C(=O)OC(C)C)C1c1cccc([N+](=O)[O-])c1 (centres unmarked) [Example 3, 1,2,6-trimethyl-4-(3'-nitrophenyl)-1,4-dihydropyridine-3,5-dicarboxylic acid 3-ethyl-ester-5-isopropyl-ester]
LD50 [1]: 3000 mg/kg
O2 % Rise (rise in oxygen saturation in the coronary sinus) (coronary vessels; 0.1 mg/kg): 39%
Reversion time (to the initial value) (coronary vessels; 0.1 mg/kg): > 6 h
minimal effective dose (hypertensive rats): 0.3 mg/kg

CCOC(=O)C1=C(C)N(C)C(C)=C(C(=O)OC)C1c1cccc([N+](=O)[O-])c1 (centres unmarked) [Example 1, 1,2,6-trimethyl-4-(3'-nitrophenyl)-1,4-dihydropyridine-3,5-dicarboxylic acid 3-methyl-ester-5-ethyl-ester]
LD50 [1]: 3000 mg/kg
minimal effective dose (hypertensive rats): 0.3 mg/kg

C=CCOC(=O)C1=C(C)N(C)C(C)=C(C(=O)OCC)C1c1ccccc1C#N (centres unmarked) [Example 6, 1,2,6-trimethyl-4-(2'-cyanophenyl)-1,4-dihydropyridine-3,5-dicarboxylic acid 3-ethyl-ester-5-allyl-ester]
O2 % Rise (rise in oxygen saturation in the coronary sinus) (coronary vessels; 0.05 mg/kg): 39%
Reversion time (to the initial value) (coronary vessels; 0.05 mg/kg): > 4 h
minimal effective dose (hypertensive rats): 0.3 mg/kg

COC(=O)C1=C(C)N(C)C(C)=C(C(=O)OC(C)C)C1c1cccc([N+](=O)[O-])c1 (centres unmarked) [Example 2, 1,2,6-trimethyl-4-(3'-nitrophenyl)-1,4-dihydropyridine-3,5-dicarboxylic acid 3-methyl-ester-5-isopropyl-ester]
LD50 [1]: 3000 mg/kg
O2 % Rise (rise in oxygen saturation in the coronary sinus) (coronary vessels; 0.01 mg/kg): 31%
Reversion time (to the initial value) (coronary vessels; 0.01 mg/kg): > 3.5 h
minimal effective dose (hypertensive rats): 1 mg/kg
